Laboratory results published in patent US10039798B2, “Extracts of rosemary or hemerocallis fulva and methods of using same to promote circadian rhythm” (IN Ingredients, Inc., priority 2013, dated 2018).

Tests used:
Format in all cases: cell-based, Porcine
Settings in all cases: 1 μM, 5 μM or 20 μM, 24 hr at 37° C.
CLOCK = CLOCK immunofluorescence in iPEC-1 cells treated with ursolic acid
Method: (§1) iPEC-1 cells were grown as a monolayer in DMEM with 10% fetal bovine serum (FBS) and the necessary supplements at 37° C. in a humidified incubator with 5% CO2. iPEC1 cells were seeded on 35 mm dishes. Experiments were initiated 48 hr after plating. Cells were treated with saline or with ursolic acid at three separate dosages (1 μM; 5 μM; or 20 μM) in the medium for 24 hr at 37° C. The cells were then washed with ice-cold PBS and fixed with 4% paraformaldehyde for 10 min at room temperature followed by permeabilization with 0.3% Triton X-100 for 10 min. After being washed with PBS three times, cells were incubated for 1 hr in PBS containing 10% normal goat serum blocking solution. The cells were subjected to immunofluorescence staining with the target specific antibodies (SIRT1, CLOCK and Bmal1) overnight at 4° C. The cells were then washed with cold PBS three times for 3 min each, and incubated with Alexa-labeled secondary antibodies (Invitrogen) at room temperature for 1 h. The cells were examined by fluorescence microscopy (a Nikon TE2000-S microscope, Nikon, Tokyo, Japan).

SIRT1 = SIRT1 immunofluorescence in iPEC-1 cells treated with ursolic acid
Method: as §1

Bmal1 = Bmal1 immunofluorescence in iPEC-1 cells treated with ursolic acid
Method: as §1

C[C@H]1[C@H](C)CC[C@]2(C(=O)O)CC[C@]3(C)C(=CC[C@@H]4[C@@]5(C)CC[C@H](O)C(C)(C)[C@@H]5CC[C@]43C)[C@H]12 [ursolic acid]
intensity of immunofluorescence of CLOCK compared with controls (CLOCK): significantly induced the intensity of immunofluorescence | intensity of immunofluorescence of SIRT1 compared with controls (SIRT1): significantly induced the intensity of immunofluorescence | intensity of immunofluorescence of Bmal1 compared with controls (Bmal1): significantly induced the intensity of immunofluorescence
